# Data: patent publication US20130315843A1, “COMPOSITION FOR REDUCTION OF TRPA1 AND TRPV1 SENSATIONS” (priority 2012, published 2013)
# Like-named read-outs stand apart in the source and are kept apart here.
# Target: human TRPA1 (Homo sapiens, UniProt O75762)
# Experiment: FLIPR Ca2+ assay, reduction of hydrogen peroxide activation of TRPA1
# Assay type: cell-based
# Parameters: expressed in transfected cells
# Conditions: for inhibition at 400 µM / inhibition at 100 µM: read-out: % Reduction of Hydrogen Peroxide TRPA1 Activation
# Procedure: After centrifugation, a pellet of cells was formed in the bottom of the tube separating them from the supernatant solution.
# The pelleted cells were re-suspended in 10 ml assay buffer and 90 μl aliquots (˜50,000 cells) per well delivered to a 96-well assay plate containing 10 μl of test compounds ([…]) or buffer control and incubated at room temperature for 30 minutes.
# [1] = 100 μM antagonist vs 500 μM hydrogen peroxide
# [2] = 400 μM antagonist vs 500 μM hydrogen peroxide
# [3] = antagonist 400 μM against 200 μM hydrogen peroxide
# [4] = compound 100 μM against 200 μM hydrogen peroxide, Sets 1-4
# human TRPA1, sequence (O75762 whole entry): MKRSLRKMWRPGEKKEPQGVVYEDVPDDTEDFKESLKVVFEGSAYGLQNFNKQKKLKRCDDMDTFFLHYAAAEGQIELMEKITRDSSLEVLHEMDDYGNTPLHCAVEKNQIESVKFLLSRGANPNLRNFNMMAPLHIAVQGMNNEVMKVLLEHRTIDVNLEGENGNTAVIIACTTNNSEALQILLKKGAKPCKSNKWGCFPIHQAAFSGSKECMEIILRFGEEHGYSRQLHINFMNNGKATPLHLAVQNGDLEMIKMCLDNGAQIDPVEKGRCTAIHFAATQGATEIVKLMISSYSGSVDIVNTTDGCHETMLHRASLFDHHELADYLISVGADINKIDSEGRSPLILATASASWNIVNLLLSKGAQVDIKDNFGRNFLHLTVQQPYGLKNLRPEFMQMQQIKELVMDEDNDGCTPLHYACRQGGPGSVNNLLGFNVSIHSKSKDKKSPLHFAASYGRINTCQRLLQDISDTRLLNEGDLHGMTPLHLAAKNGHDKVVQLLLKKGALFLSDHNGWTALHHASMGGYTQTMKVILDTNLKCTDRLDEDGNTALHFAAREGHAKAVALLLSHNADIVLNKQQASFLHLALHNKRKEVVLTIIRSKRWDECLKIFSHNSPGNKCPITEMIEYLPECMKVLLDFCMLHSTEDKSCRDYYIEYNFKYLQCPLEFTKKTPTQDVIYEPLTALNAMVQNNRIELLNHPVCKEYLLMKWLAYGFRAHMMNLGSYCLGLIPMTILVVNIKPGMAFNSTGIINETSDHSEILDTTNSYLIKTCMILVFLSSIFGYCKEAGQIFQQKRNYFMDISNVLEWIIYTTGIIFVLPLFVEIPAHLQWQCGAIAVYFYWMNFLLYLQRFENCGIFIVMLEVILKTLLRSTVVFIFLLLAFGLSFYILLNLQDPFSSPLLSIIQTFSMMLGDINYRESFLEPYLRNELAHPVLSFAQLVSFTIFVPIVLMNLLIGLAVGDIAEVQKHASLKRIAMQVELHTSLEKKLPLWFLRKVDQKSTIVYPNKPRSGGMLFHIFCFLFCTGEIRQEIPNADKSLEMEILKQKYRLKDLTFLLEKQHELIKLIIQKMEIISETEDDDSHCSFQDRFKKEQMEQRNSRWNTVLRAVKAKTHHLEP
Structure (SMILES),Block of hydrogen peroxide activation of TRPA1 [1],Average Ca++ Counts [4] [Counts],inhibition at 100 µM [4] [%],further results
CC(=O)OCC(C)(C)Cc1ccccc1,BLOCK ONLY H2O2/TRPA1,,,
C[C@H]1CC[C@]2(O1)C(C)(C)CCC[C@]2(C)O,,,,Block of hydrogen peroxide activation of TRPA1 [2]: BLOCK ONLY H2O2/TRPA1
CCCC1CC(=O)C=C(C)C1 (centres unmarked),,,,Block of hydrogen peroxide activation of TRPA1 [2]: BLOCK ONLY H2O2/TRPA1
CC(C)C=C(C=O)c1ccccc1 (mixture of isomers) [4-Methyl-2-phenyl-2 Pentenal],,,,inhibition at 400 µM [3]: 54%
CC1=CC(=O)[C@@H]2C[C@H]1C2(C)C (racemic) [dl-verbenone],,,,% Reduction of Hydrogen Peroxide TRPA1 Activation: 54.1%; Average Ca++ Counts: 3231.0 Counts; Block of hydrogen peroxide activation of TRPA1: BLOCK ONLY H2O2/TRPA1
CCCCCCCCCCCO [1-undecanol],BLOCK ONLY H2O2/TRPA1,3396.0,51.8,
"CSCSCSC [2,4,6-trithiaheptane]",BLOCK ONLY H2O2/TRPA1,4610.5,56.5,
"Cc1ccc(C)c(O)c1 [2,5-dimethylphenol]",BLOCK ONLY H2O2/TRPA1,5208.0,50.8,
c1ccc(CCCC2CCCO2)cc1 (centres unmarked) [2-(3-Phenylpropyl) tetrahydrofuran],,,,Block of hydrogen peroxide activation of TRPA1 [2]: BLOCK ONLY H2O2/TRPA1; inhibition at 400 µM [3]: 74%
"CCCCCCC1OCC(C)O1 (centres unmarked) [2-Hexyl-4-methyl-1,3-dioxolane]",BLOCK ONLY H2O2/TRPA1,,,
CCCc1ccc(O)c(OC)c1 [2-Methoxy-4-propyl-phenol],,,,Block of hydrogen peroxide activation of TRPA1: BLOCK ONLY H2O2/TRPA1; inhibition at 400 µM: 43%
CCC(C)COC(=O)C(C)CC (centres unmarked) [2-Methyl butyl 2-methylbutyrate],BLOCK ONLY H2O2/TRPA1,,,
CC(=O)c1ccc(C)o1 [2-acetyl-5-methylfuran],BLOCK ONLY H2O2/TRPA1,2937.0,58.3,
"CCCCCCC1OCC(C)O1 (centres unmarked) [2-hexyl-4-methyl-1,3-dioxolan]",,3376.0,52.1,
CC1=C(O)C(=O)CC1.O [2-hydroxy-3-methyl-2-cyclopenten-1-one hydrate],,,,Average Ca++ Counts: 4172.0 Counts; inhibition at 100 µM: 60.6%
CCC(C)CS (centres unmarked) [2-methyl-1-butanethiol],BLOCK ONLY H2O2/TRPA1,3208.0,54.5,
CCOc1nccnc1C [2-methyl-3-ethoxypyrazine],BLOCK ONLY H2O2/TRPA1,3197.0,54.6,
CCC(C)COC(=O)C(C)CC (centres unmarked) [2-methylbutyl 2-methylbutyrate],,2685.5,61.9,
CC=C(C=O)c1ccccc1 [2-phenyl-2-butenal],BLOCK ONLY H2O2/TRPA1,3809.0,56.3,
"CC1CC(O)CC(C)(C)C1 (centres unmarked) [3,3,5-Trimethylcyclohexanol]",,,,Block of hydrogen peroxide activation of TRPA1 [2]: BLOCK ONLY H2O2/TRPA1; inhibition at 400 µM [3]: 72%
"CC(C)CCCC(C)CCO (centres unmarked) [3,7-Dimethyl-1-octanol]",BLOCK ONLY H2O2/TRPA1,,,
"CC(C)CCCC(C)CCO (centres unmarked) [3,7-dimethyl-1-octanol, 95%, 3,7-dimethyl-1-octanol]",,5168.0,51.2,
CCCCCCCC1CC(C)OC1=O (centres unmarked) [3-Heptyldihydro-5-methyl-2(3H)-furanone],,,,Block of hydrogen peroxide activation of TRPA1 [2]: BLOCK ONLY H2O2/TRPA1; inhibition at 400 µM [3]: 59%
"CC(=O)c1cccnc1 [3-acetylpyridine, 98%, 3-acetylpyridine]",BLOCK ONLY H2O2/TRPA1,2981.0,57.7,
CCCC(CCOC(C)=O)SC(C)=O (centres unmarked) [3-acetylsulfanylhexyl acetate],,,,Block of hydrogen peroxide activation of TRPA1 [2]: BLOCK ONLY H2O2/TRPA1; inhibition at 400 µM [3]: 58%
O=C(O)c1cccc(O)c1 [3-hydroxybenzoic acid],BLOCK ONLY H2O2/TRPA1,3284.5,53.4,
"CC1CCC(=O)C1=O (centres unmarked) [3-methyl-1,2-cyclopentanedione]",BLOCK ONLY H2O2/TRPA1,3246.5,53.9,
"CC(=O)CCc1ccc2c(c1)OCO2 [4-benzo[1,3]dioxol-5-yl-butan-2-one]",,,,Average Ca++ Counts: 5431.5 Counts; Block of hydrogen peroxide activation of TRPA1: BLOCK ONLY H2O2/TRPA1; inhibition at 100 µM: 48.7%
O=Cc1ccc(O)cc1 [4-hydroxybenzaldehyde],,3424.5,51.4,
CC(=O)c1ccc(C)cc1 [4′-methylacetophenone],BLOCK ONLY H2O2/TRPA1,3244.5,53.9,

# Second part, led by results:
Block of hydrogen peroxide activation of TRPA1 [1],Average Ca++ Counts [4] [Counts],inhibition at 100 µM [4] [%],Structure (SMILES),further results
BLOCK ONLY H2O2/TRPA1,5664.5,46.5,CCCCCCO [1-hexanol],
BLOCK ONLY H2O2/TRPA1,3228.5,54.2,C=CC(CCCCC)OC(C)=O (centres unmarked) [1-octen-3-yl acetate],
BLOCK ONLY H2O2/TRPA1,4960.5,53.2,CCCCC(CC)CO (centres unmarked) [2-ethyl-1-hexanol],
BLOCK ONLY H2O2/TRPA1,5040.0,52.4,CCC=C(C)C(=O)O [2-methyl-2-pentenoic acid],
BLOCK ONLY H2O2/TRPA1,4994.0,52.9,CCCCC(=O)C(C)C [2-methyl-3-heptanone],
BLOCK ONLY H2O2/TRPA1,3064.5,56.5,CCCCCCCC(C)O (centres unmarked) [2-nonanol],
BLOCK ONLY H2O2/TRPA1,4875.0,54,CCC(=O)c1nccs1 [2-propionylthiazole],
BLOCK ONLY H2O2/TRPA1,3049.0,56.7,CCCCCCCCCC(C)O (centres unmarked) [2-undecanol],
BLOCK ONLY H2O2/TRPA1,3381.5,52,CCCC(=O)CC [3-hexanone],
BLOCK ONLY H2O2/TRPA1,1255.5,82.2,CCC(S)C(C)=O (centres unmarked) [3-mercapto-2-pentanone],
,3322.5,43.5,CSCCC(C)=O [4-methylthio-2-butanone],
BLOCK ONLY H2O2/TRPA1,4747.0,55.2,CC(C)CCCC(=O)O [5-methylhexanoic acid],
BLOCK ONLY H2O2/TRPA1,3357.5,52.3,CCCCCC(=O)CCCCC [6-undecanone],
